Data: ChEMBL document CHEMBL4364312, “Design, synthesis and biological evaluation of hydroxypyridinone-coumarin hybrids as multimodal monoamine oxidase B inhibitors and iron chelates against Alzheimer's disease” (Eur J Med Chem, 2019)

How the values were obtained:
physchem [1] = conditions: DMSO:KCl
Description: Dissociation constant, pKa1 of compound for protonation of the 4-oxo group in DMSO:KCl at 30 uM/L incubated for 1 min by UV-Vis spectrophotometry

[2] = molecular target: T1, Amine oxidase [flavin-containing] B (Homo sapiens, UniProt P27338); conditions: 0.25 h, read-out: INH
T1 sequence (P27338 whole entry): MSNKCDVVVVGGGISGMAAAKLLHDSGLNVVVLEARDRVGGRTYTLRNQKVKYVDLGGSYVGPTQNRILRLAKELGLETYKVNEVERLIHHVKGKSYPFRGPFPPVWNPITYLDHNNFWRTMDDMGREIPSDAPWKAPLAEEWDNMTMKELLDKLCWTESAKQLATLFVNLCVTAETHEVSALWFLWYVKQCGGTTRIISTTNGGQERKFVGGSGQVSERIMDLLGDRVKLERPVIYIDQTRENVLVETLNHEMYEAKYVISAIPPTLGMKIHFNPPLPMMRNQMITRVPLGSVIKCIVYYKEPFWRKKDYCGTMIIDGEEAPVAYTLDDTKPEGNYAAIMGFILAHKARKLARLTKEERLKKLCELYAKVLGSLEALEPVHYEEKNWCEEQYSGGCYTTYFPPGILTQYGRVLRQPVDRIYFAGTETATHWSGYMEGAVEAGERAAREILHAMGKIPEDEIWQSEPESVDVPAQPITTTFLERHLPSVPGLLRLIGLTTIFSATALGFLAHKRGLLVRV
Description: Inhibition of recombinant human MAO-B expressed in baculovirus infected BTI insect cells at 10 uM incubated for 15 mins with substrate p-Tyramine by fluorescence assay relative to control

[3] = molecular target: T1, Amine oxidase [flavin-containing] B; assay: biochemical
Description: Inhibition of recombinant human MAO-B expressed in baculovirus infected BTI insect cells incubated for 15 mins with substrate p-Tyramine by fluorescence assay

physchem [4] = conditions: DMSO:KCl; remark: listed apart in the source
Description: Dissociation constant, pKa2 of compound for 3-(or 5-) hydroxyl group in DMSO:KCl at 30 uM/L incubated for 1 min by UV-Vis spectrophotometry

[5] = Binding affinity to Fe3+ assessed as equilibrium binding constant logK2 in KCl pH 2 to 10.5 at 30 uM incubated for 20 mins by UV-Vis spectrophotometric method
[6] = Binding affinity to Fe3+ assessed as equilibrium binding constant logK3 in KCl pH 2 to 10.5 at […] 30 uM by UV-Vis spectrophotometric method
U-251 [7] = assay: Cytoprotective against H2O2-induced cell death in human U251 cells assessed as increase in cell viability at 100 uM preincubated for 24 hrs followed by H2O2 induction and measured after 1 hr by MTS assay (reference value: 50%); assay type: functional
Mus musculus [8] = assay: (§1) Cognition enhancement in scopolamine-induced impairment in ICR mouse assessed as distance to target at 10 mg/kg, ip administered once daily for 2 weeks pretreated with scopolamine for 30 mins and measured at 5th day of training session by Morris water maze test (reference value: 10.4 +/- 1.2 meter); assay type: functional
Mus musculus [9] = assay: Cognition enhancement in scopolamine-induced impairment in ICR mouse assessed as latency time at 10 mg/kg, ip administered once daily for 2 weeks pretreated with scopolamine for 30 mins and measured at 5th day of training session by Morris water maze test (reference value: 40.2 +/- 10.5 sec); assay type: functional
Mus musculus [10] = assay: as §1, with “number of times” for “distance”, “to enter” for “to”, “target quadrant” for “target”, “9.0” for “10.4”, “0.8)” for “1.2 meter)”; assay type: functional
U-251 [11] = assay: Cytotoxicity against human U251 cells assessed as reduction in cell viability at 0.01 to 100 uM incubated for 24 hrs by MTS assay; assay type: cell-based; conditions: u-251, 24 h

| Structure (SMILES) | pKa at 1 min, 30 µM (physchem [1]) | inhibition at 10 µM [2] | IC50 [3] | pKa at 1 min, 30 µM (physchem [4]) | further results |
| --- | --- | --- | --- | --- | --- |
| Cc1cc(=O)c(O)cn1Cc1cc2ccc(OCc3cccc(Cl)c3)cc2oc1=O | 3.16 | 82% | 126 nM | 9.07 |  |
| Cc1cc(=O)c(O)cn1Cc1cc2ccc(OCc3ccccc3)cc2oc1=O | 3.12 | 86.5% | 290 nM | 9.03 |  |
| Cc1c(O)c(=O)ccn1C [DEFERIPRONE] | 3.65 |  |  | 9.89 | logKb [5]: 27.7; logKb [6]: 37.3 |
| CCc1c(O)c(=O)ccn1Cc1cc2ccc(OCc3ccccc3)cc2oc1=O | 3.11 | 91.9% | 129 nM | 9.71 |  |
| O=C1O[C@H]([C@@H](O)CO)C(O)=C1O [ASCORBIC ACID] |  |  |  |  | Activity (U-251 [7]): 57.6% |
| C#CCOc1ccc2cc(Cn3ccc(=O)c(O)c3C)c(=O)oc2c1 | 3.11 | 47.1% |  | 9.58 |  |
| Cc1c(O)c(=O)ccn1Cc1cc2ccc(OCc3cc(F)cc(F)c3)cc2oc1=O | 3.1 | 67.5% |  | 9.54 |  |
| CCc1c(O)c(=O)ccn1Cc1cc2ccc(OCc3cc(F)cc(F)c3)cc2oc1=O | 3.08 | 91.7% | 223 nM | 9.7 |  |
| Cc1cc(=O)c(O)cn1Cc1cc2ccc(OCc3ccc(F)cc3)cc2oc1=O | 3.26 | 87.6% | 145 nM | 8.87 |  |
| Cc1c(O)c(=O)ccn1Cc1cc2ccc(OCc3cccc(Cl)c3)cc2oc1=O | 3.17 | 21.2% |  | 9.67 |  |
| C#CCN(C)Cc1ccccc1 [PARGYLINE] |  |  |  |  | Activity (U-251 [7]): 61.5%; Activity (Mus musculus [8]): 6.6 m; Time (Mus musculus [9]): 5.6 s; Activity (Mus musculus [10]): 16.3 |
| CCc1c(O)c(=O)ccn1Cc1cc2ccc(OCc3cccc(F)c3)cc2oc1=O | 3.12 | 91.9% | 265 nM | 9.69 |  |
| C#CCOc1ccc2cc(Cn3cc(O)c(=O)cc3C)c(=O)oc2c1 | 3.07 | 50.6% |  | 8.94 |  |
| CCc1c(O)c(=O)ccn1Cc1cc2ccc(OCc3ccc(F)cc3)cc2oc1=O | 3.15 | 91.6% | 163 nM | 9.62 |  |
| Cc1cc(=O)c(O)cn1Cc1cc2ccccc2oc1=O | 3.14 | 6.8% |  | 8.97 |  |
| Cc1c(O)c(=O)ccn1Cc1cc2ccc(OCc3cccc(F)c3)cc2oc1=O | 3.1 | 81.3% | 14.7 nM | 9.65 | Activity (U-251 [7]): 57.8%; Activity (Mus musculus [8]): 4.2 m; Time (Mus musculus [9]): 9.6 s; Activity (U-251 [11]): Non-Toxic; Activity (Mus musculus [10]): 16.6 |
| CCc1c(O)c(=O)ccn1Cc1cc2ccc(OC)cc2oc1=O | 3.09 | 50.7% |  | 9.7 |  |
| COc1ccc2cc(Cn3ccc(=O)c(O)c3C)c(=O)oc2c1 | 3.13 | 94.4% | 91.9 nM | 9.66 |  |
| CCc1c(O)c(=O)ccn1Cc1cc2ccccc2oc1=O | 3.03 | 25% |  | 9.7 |  |
| CCc1c(O)c(=O)ccn1Cc1cc2ccc(OCc3cccc(Cl)c3)cc2oc1=O | 3.1 | 92.5% | 425 nM | 9.76 |  |
| Cc1cc(=O)c(O)cn1Cc1cc2ccc(OCc3cc(F)cc(F)c3)cc2oc1=O | 3.11 | 68.1% |  | 8.95 |  |
| Cc1c(O)c(=O)ccn1Cc1cc2ccccc2oc1=O | 3.07 | 22.4% |  | 9.68 |  |
| COc1ccc2cc(Cn3cc(O)c(=O)cc3C)c(=O)oc2c1 | 3.15 | 38.3% |  | 9 |  |
| Cc1cc(=O)c(O)cn1Cc1cc2ccc(OCc3cccc(F)c3)cc2oc1=O | 3.15 | 85.8% | 193 nM | 8.99 |  |
| Cc1c(O)c(=O)ccn1Cc1cc2ccc(OCc3ccccc3)cc2oc1=O | 3.11 | 89.6% | 336 nM | 9.61 |  |
| C#CCOc1ccc2cc(Cn3ccc(=O)c(O)c3CC)c(=O)oc2c1 | 2.95 | 78.1% | 121 nM | 9.63 |  |
